Broadly, the IC50 is the point on the concentration scale where inhibition reaches its midpoint. Read a low IC50 as greater potency.

The target of the assay is MAPK14 (human) (UniProt Q16539). Kind of assay: Inhibition of MAPK14 by Human Whole Blood Assay. The conditions noted are these: blood cells.
Chain of MAPK14 (human) (Q16539 whole entry, looked up): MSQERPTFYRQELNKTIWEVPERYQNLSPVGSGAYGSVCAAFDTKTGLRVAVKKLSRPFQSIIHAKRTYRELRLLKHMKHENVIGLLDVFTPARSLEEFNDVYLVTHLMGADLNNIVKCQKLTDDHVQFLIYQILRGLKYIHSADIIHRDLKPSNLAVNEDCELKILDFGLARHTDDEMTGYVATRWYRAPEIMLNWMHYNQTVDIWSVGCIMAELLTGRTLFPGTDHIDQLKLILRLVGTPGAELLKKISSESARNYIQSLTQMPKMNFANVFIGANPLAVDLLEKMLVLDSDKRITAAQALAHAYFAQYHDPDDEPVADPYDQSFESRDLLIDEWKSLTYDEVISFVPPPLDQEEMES
Consider `C[C@H](Nc1nccc(N(CC2CC2)C(=O)c2ccc3ccccc3c2)n1)c1ccccc1`, for which the IC50 was less than 1000 nM.

The compound `CCN(C(=O)c1cc(C)ccc1F)c1ccnc(N[C@@H](C)c2ccccc2)n1` came in with an IC50 of less than 1000 nM.

In turn, `CC(C)Nc1nccc(N(CC2CCNCC2)C(=O)c2ccc3c(c2)CCO3)n1` displayed an IC50 of less than 1000 nM.

For the compound `CCN(C(=O)c1cccc(C)c1)c1ccnc(N[C@@H](C)c2ccccc2)n1`, the IC50 is less than 1000 nM.

As to `C[C@H](Nc1cc(N(Cc2ccc(F)cc2)S(=O)(=O)c2ccc3ccccc3c2)ccn1)c1ccccc1`, the IC50 is not above 1000 nM.

The compound `O=C(c1ccc2c(c1)CCO2)N(CC1CCNCC1)c1ccnc(NC2CC2)n1` registered an IC50 of less than 1000 nM.

The compound `CC(C)C(C)Nc1nccc(N(CC2CCNCC2)C(=O)c2ccc3c(c2)CCO3)n1` (stereo unspecified) had an IC50 of less than 1000 nM.

`NCCCCN(C(=O)c1ccc2c(c1)CCO2)c1ccnc(NC2CCC(O)CC2)n1` (stereo unspecified) yielded an IC50 of less than 1000 nM.

`C[C@H](Nc1cc(N(Cc2ccc(F)cc2)C(=O)c2cccs2)ccn1)c1ccccc1` yielded an IC50 not above 1000 nM.

`CC(C)Nc1cc(N(Cc2ccc(F)cc2)C(=O)c2ccc3ccccc3c2)ccn1` had an IC50 not above 1000 nM.

`CC1CCCCC1Nc1nccc(N(CC2CCNCC2)C(=O)c2ccc3c(c2)CCO3)n1` (stereo unspecified) yielded an IC50 of less than 1000 nM.

`C[C@H](Nc1nccc(N(C(=O)c2ccc3ccccc3c2)C2CC(C)(C)NC(C)(C)C2)n1)c1ccccc1`: the IC50 was less than 1000 nM.

`CNc1nccc(N(CC2CCNCC2)C(=O)c2ccc3ccccc3c2)n1` gave an IC50 of less than 1000 nM.

In turn, `COCCCNc1nccc(N(CC2CCNCC2)C(=O)c2ccc3c(c2)CCO3)n1` displayed an IC50 of less than 1000 nM.

Compound `CCN(C(=O)c1cccc(C2CC2)c1)c1ccnc(N[C@@H](C)c2ccccc2)n1` yielded an IC50 of less than 1000 nM.

Consider `O=C(c1ccc2ccccc2c1)N(Cc1ccc(F)cc1)c1ccnc(NCc2ccccc2)c1`, for which the IC50 was not above 1000 nM.

For `O=C(c1ccc2ccccc2c1)N(Cc1ccc(F)cc1)c1ccnc(NC2CCCCC2)c1`, the IC50 was not above 1000 nM.

As to `C[C@H](Nc1nccc(N(Cc2ccc(S(C)(=O)=O)cc2)C(=O)c2ccc3ccccc3c2)n1)c1ccccc1`, the IC50 was not above 1000 nM.

`C[C@H](Nc1nccc(N(CC2CCN(C(N)=O)CC2)C(=O)c2ccc3c(c2)CCO3)n1)c1ccccc1` registered an IC50 of less than 1000 nM.

For the compound `COCCNc1nccc(N(CC2CCNCC2)C(=O)c2ccc3c(c2)CCO3)n1`, the IC50 was less than 1000 nM.

As for `CCN(C(=O)c1cccc2c1OCCO2)c1ccnc(N[C@@H](C)c2ccccc2)n1`, the IC50 is less than 1000 nM.

On to `COC(=O)CN1CCC(CN(C(=O)c2ccc3c(c2)CCO3)c2ccnc(NC(C)C)n2)CC1`, for which the IC50 is less than 1000 nM.

As to `COCCN(C(=O)c1cccc(C)c1C)c1ccnc(N[C@@H](C)c2ccccc2)n1`, the IC50 is less than 1000 nM.

`CCN(C(=O)c1ccc2occc2c1)c1ccnc(N[C@@H](C)c2ccccc2)n1` yielded an IC50 of less than 1000 nM.

In turn, `CC(C)Nc1nccc(N(CCCCN)C(=O)c2ccc3c(c2)CCO3)n1` yielded an IC50 of less than 1000 nM.

In the case of `C[C@H](Nc1nccc(N(C(=O)c2ccc3ccccc3c2)C2CCNCC2)n1)c1ccccc1`, the IC50 was not above 1000 nM.

`C[C@H](Nc1nccc(N(CC2CCNCC2)C(=O)c2ccc3c(c2)CCCC3)n1)c1ccccc1` gave an IC50 of less than 1000 nM.

Compound `CCN(C(=O)c1ccc2snnc2c1)c1ccnc(N[C@@H](C)c2ccccc2)n1` yielded an IC50 not above 1000 nM.

`CC(C)Nc1nccc(N(CCCCN2CCCC2)C(=O)c2ccc3c(c2)CCO3)n1` had an IC50 of less than 1000 nM.

The compound `C[C@H](Nc1nccc(N(Cc2cccnc2)C(=O)c2ccc3ccccc3c2)n1)c1ccccc1` yielded an IC50 not above 1000 nM.

`O=C(c1ccc2ccccc2c1)N(CC1CC1)c1ccnc(NC2CCC(O)CC2)n1` (stereo unspecified) yielded an IC50 of less than 1000 nM.

In the case of `COCCN(C(=O)c1ccc2ccccc2c1)c1ccnc(N[C@@H](C)c2ccccc2)n1`, the half-maximal inhibitory concentration (IC50) was not above 1000 nM.

In turn, `CCN(C(=O)c1cccc(Cl)c1)c1ccnc(N[C@@H](C)c2ccccc2)n1` gave an IC50 of less than 1000 nM.

With `CCc1cccc(C(=O)N(CC)c2ccnc(N[C@@H](C)c3ccccc3)n2)c1`, the IC50 is less than 1000 nM.

`CC(=O)N(Cc1ccc(F)cc1)c1ccnc(N[C@@H](C)c2ccccc2)c1` had an IC50 not above 1000 nM.

`C[C@H](Nc1nccc(N(CCCCN)C(=O)c2ccc3c(c2)CCO3)n1)c1ccccc1` showed an IC50 of less than 1000 nM.

As for `CC(C)Nc1nccc(N(CCCCCN)C(=O)c2ccc3c(c2)CCO3)n1`, the IC50 was less than 1000 nM.

The compound `COCCN(C(=O)c1ccc2ccccc2c1)c1ccnc(NC(C)C)n1` registered an IC50 not above 1000 nM.

`CC(C)Nc1nccc(N(CC2CC2)C(=O)c2ccc3ccccc3c2)n1` displayed an IC50 of less than 1000 nM.

On to `CCN(C(=O)c1cccc(C)c1C)c1ccnc(N[C@@H](C)c2ccccc2)n1`, for which the IC50 was less than 1000 nM.

Regarding `CCN(C(=O)c1ccc2nccnc2c1)c1ccnc(N[C@@H](C)c2ccccc2)n1`, the IC50 was not above 1000 nM.

On to `C[C@H](Nc1nccc(N(C(=O)c2ccc3ccccc3c2)C2CCN(C(=O)OC(C)(C)C)CC2)n1)c1ccccc1`, for which the IC50 is less than 1000 nM.

Take `CC(C)Nc1nccc(N(Cc2ccc(F)cc2)C(=O)c2ccc3ccccc3c2)n1`: the IC50 was not above 1000 nM.

Regarding `C[C@H](Nc1nccc(N(CC2CCNC2)C(=O)c2ccc3c(c2)CCO3)n1)c1ccccc1` (stereo partly specified), the IC50 was less than 1000 nM.

Consider `C[C@H](Nc1cc(N(Cc2ccc(F)cc2)C(=O)c2ccc3ccccc3c2)ncn1)c1ccccc1`, for which the IC50 was not above 1000 nM.

Take `C[C@@H](Nc1cc(N(Cc2ccc(F)cc2)C(=O)c2ccc3ccccc3c2)ccn1)c1ccccc1`: the IC50 was not above 1000 nM.

For the compound `C[C@H](Nc1nccc(N(CC2CCNCC2)C(=O)c2ccc3c(c2)CCO3)n1)c1ccccc1`, the IC50 was less than 1000 nM.

`CCN(C(=O)c1ccc2c(c1)CCC2)c1ccnc(N[C@@H](C)c2ccccc2)n1` registered an IC50 of less than 1000 nM.

As for `C[C@H](Nc1nccc(N(CC2CCNCC2)C(=O)c2ccc3ccccc3c2)n1)c1ccccc1`, the IC50 is less than 1000 nM.

In turn, `O=C(c1ccc2ccccc2c1)N(Cc1ccc(F)cc1)c1ccnc(NC2CCN(Cc3ccccc3)CC2)c1` had an IC50 not above 1000 nM.

`C[C@H](Nc1nccc(N(CC2CCN(C3CCCC3)CC2)C(=O)c2ccc3c(c2)CCO3)n1)c1ccccc1` registered an IC50 of less than 1000 nM.

Consider `C[C@H](Nc1cc(N(C)C(=O)N2CCc3ccccc3C2)ccn1)c1ccccc1`, for which the IC50 was not above 1000 nM.

On to `CC(C)(C)CNc1nccc(N(CC2CCNCC2)C(=O)c2ccc3c(c2)CCO3)n1`, for which the IC50 is less than 1000 nM.

Regarding `O=C(c1ccc2ccccc2c1)N(Cc1ccc(F)cc1)c1ccnc(N[C@H]2CCc3ccccc32)c1`, the concentration for half-maximal inhibition (IC50) was not above 1000 nM.

`C[C@H](Nc1nccc(N(CC2CC2)C(=O)c2ccc3c(c2)CCO3)n1)c1ccccc1` came in with an IC50 of less than 1000 nM.

Regarding `C[C@H](Nc1cc(N(Cc2ccc(F)cc2)C(=O)c2ccc3ccccc3c2)ccn1)c1ccc2ccccc2c1`, the IC50 is not above 1000 nM.

In turn, `CCN(C(=O)c1scc2c1CCCC2)c1ccnc(N[C@@H](C)c2ccccc2)n1` showed an IC50 of less than 1000 nM.

Consider `COCCCN(C(=O)c1ccc2ccccc2c1)c1ccnc(N[C@@H](C)c2ccccc2)n1`, for which the IC50 was less than 1000 nM.

In turn, `C[C@H](Nc1nccc(N(CC2CCNCC2)C(=O)c2cccc3ccccc23)n1)c1ccccc1` showed an IC50 of less than 1000 nM.

As for `O=C(c1ccc2c(c1)CCO2)N(CC1CCNCC1)c1ccnc(NC2CCCC2)n1`, the half-maximal inhibitory concentration (IC50) was less than 1000 nM.

Consider `CC(C)N(C(=O)c1ccc2ccccc2c1)c1ccnc(N[C@@H](C)c2ccccc2)n1`, for which the IC50 is not above 1000 nM.

Compound `CC(C)Nc1nccc(N(C(=O)c2ccc3ccccc3c2)C(C)C)n1` showed an IC50 not above 1000 nM.

`COc1ccc([C@H](C)Nc2cc(N(Cc3ccc(F)cc3)C(=O)c3ccc4ccccc4c3)ccn2)cc1`: the IC50 was not above 1000 nM.

In turn, `CCN(C(=O)c1cccc(Cl)c1C)c1ccnc(N[C@@H](C)c2ccccc2)n1` had an IC50 of less than 1000 nM.

`C[C@H](Nc1nccc(N(CC2CCNCC2)C(=O)c2ccc3c(c2)CCC3)n1)c1ccccc1` had an IC50 of less than 1000 nM.

In turn, `C[C@H](Nc1nccc(N(CC2CCNCC2)C(=O)c2sc3ccccc3c2Cl)n1)c1ccccc1` showed an IC50 of less than 1000 nM.

Regarding `CC(C)Nc1nccc(N(CCC[C@@H](N)C(=O)N(C)C)C(=O)c2ccc3c(c2)CCO3)n1`, the IC50 is less than 1000 nM.

`O=C(c1ccc2ccccc2c1)N(Cc1ccc(F)cc1)c1ccnc(NC(c2ccccc2)c2ccccc2)c1`: the IC50 was not above 1000 nM.

`CCN(C(=O)c1cccc2c1OCC2)c1ccnc(N[C@@H](C)c2ccccc2)n1`: the IC50 is less than 1000 nM.

`CCN(C(=O)c1ccc2ccccc2c1)c1ccnc(NC2CCNCC2)n1` gave an IC50 not above 1000 nM.

Regarding `CCCN(C(=O)c1ccc2ccccc2c1)c1ccnc(NC(C)C)n1`, the IC50 was not above 1000 nM.

`COCCN(C(=O)c1ccc2c(c1)CCC2)c1ccnc(N[C@@H](C)c2ccccc2)n1`: the IC50 was less than 1000 nM.

Regarding `CC(C)Nc1nccc(N(CC2CC[C@H](N)C2)C(=O)c2ccc3c(c2)CCO3)n1` (stereo partly specified), the 50% inhibitory concentration (IC50) was less than 1000 nM.

Turning to `CCN(C(=O)c1ccc2c(c1)CCO2)c1ccnc(N[C@@H](C)c2ccccc2)n1`, the IC50 was not above 1000 nM.

For `O=C(c1ccc2ccccc2c1)N(CC1CCNCC1)c1ccnc(NC2CCOCC2)n1`, the IC50 is less than 1000 nM.

For `CCC(C)Nc1nccc(N(CC2CCNCC2)C(=O)c2ccc3c(c2)CCO3)n1` (stereo unspecified), the IC50 is less than 1000 nM.

`CCC(COC)Nc1nccc(N(CC2CCNCC2)C(=O)c2ccc3c(c2)CCO3)n1` (stereo unspecified) registered an IC50 of less than 1000 nM.

Consider `CCN(C(=O)c1ccc2ccccc2c1)c1ccnc(N[C@@H](C)c2ccccc2)n1`, for which the IC50 is not above 1000 nM.

On to `CCN(C(=O)c1cccc(C(Cl)Cl)c1)c1ccnc(N[C@@H](C)c2ccccc2)n1`, for which the IC50 was less than 1000 nM.

Turning to `O=C(c1ccc2c(c1)CCC2)N(CC1CC1)c1ccnc(NC2CCC(O)CC2)n1` (stereo unspecified), the IC50 was less than 1000 nM.

In turn, `CCN(C(=O)c1ccc2ccccc2c1)c1ccnc(NC2CCC(N)CC2)n1` (stereo unspecified) came in with an IC50 of less than 1000 nM.

For the compound `CC(C)Nc1nccc(N(C)C(=O)c2ccc3ccccc3c2)n1`, the IC50 is not above 1000 nM.

As to `C[C@H](Nc1cc(N(Cc2ccccc2)C(=O)c2ccc3ccccc3c2)ccn1)c1ccccc1`, the IC50 is not above 1000 nM.

`C[C@H](Nc1nccc(N(C)C(=O)c2ccc3ccccc3c2)n1)c1ccccc1` had an IC50 not above 1000 nM.

`CCC(Nc1cc(N(Cc2ccc(F)cc2)C(=O)c2ccc3ccccc3c2)ccn1)c1ccccc1` (stereo unspecified) gave an IC50 not above 1000 nM.

`CC(Nc1cc(N(Cc2ccc(F)cc2)C(=O)c2ccc3ccccc3c2)ccn1)c1ccc(F)cc1` (stereo unspecified): the IC50 was not above 1000 nM.

Values taken from the Kinase Knowledgebase extract (Sharma et al. 2016).
